For 14 compounds, MIC results are on record in ChEMBL document CHEMBL1275575, “Susceptibility of Mycobacterium bovis BCG vaccine strains to antituberculous antibiotics” (Antimicrob Agents Chemother, 2009).

Holding throughout (assay type): functional
For assay [1], the system named is Mycobacterium tuberculosis variant bovis. Put plainly: Antibacterial activity against Mycobacterium bovis BCG-Connaught.
Assay [2] has the same test system. Put plainly: Antibacterial activity against Mycobacterium bovis BCG-Denmark.
Assay [3] has the same test system. The experiment in a line: Antibacterial activity against Mycobacterium bovis BCG-Russia.
For assay [4] the test system is unchanged. Put plainly: Antibacterial activity against Mycobacterium bovis BCG-Pasteur.
For assay [5] the test system is unchanged. Put plainly: Antibacterial activity against Mycobacterium bovis BCG-japan.
Assay [6] shares this test system. The experiment in a line: Antibacterial activity against Mycobacterium bovis BCG-Glaxo.
For assay [7] the test system is unchanged. Put plainly: Antibacterial activity against Mycobacterium bovis BCG-Moreau.
Assay [8] shares this test system. Put plainly: Antibacterial activity against Mycobacterium bovis BCG-Connaught by Wayne's indirect method.

Converted amounts (≈) assume the structure as drawn.

Broadly, the MIC is the least concentration at which growth counts as inhibited. A high value points to a less susceptible organism. `NCC[C@H](O)C(=O)N[C@@H]1C[C@H](N)[C@@H](O[C@H]2O[C@H](CN)[C@@H](O)[C@H](O)[C@H]2O)[C@H](O)[C@H]1O[C@H]1O[C@H](CO)[C@@H](O)[C@H](N)[C@H]1O` [AMIKACIN] registered an MIC in assay [1] of 0.125 µg/mL (≈ 0.213 µM).
Regarding `CC1COc2c(N3CCN(C)CC3)c(F)cc3c(=O)c(C(=O)O)cn1c23` (stereo unspecified) [OFLOXACIN], the MIC in assay [2] was 0.75 µg/mL (≈ 2.08 µM); in assay [3], 1 µg/mL (≈ 2.77 µM); in assay [4], 0.75 µg/mL (≈ 2.08 µM); in assay [1], less than 0.031 µg/mL.
As to `CN[C@@H]1[C@H](O[C@H]2[C@H](O[C@H]3[C@H](O)[C@@H](O)[C@H](N=C(N)N)[C@@H](O)[C@@H]3N=C(N)N)O[C@@H](C)[C@]2(O)C=O)O[C@@H](CO)[C@H](O)[C@H]1O` [STREPTOMYCIN], the MIC in assay [2] worked out at 2 µg/mL (≈ 3.44 µM); in assay [5], 0.25 µg/mL (≈ 0.43 µM); in assay [6], 2 µg/mL (≈ 3.44 µM); in assay [1], 0.25 µg/mL (≈ 0.43 µM).
On to `CCc1cc(C(N)=S)ccn1` [ETHIONAMIDE], for which 4 µg/mL (≈ 24.1 µM) was the least that counted as inhibitory in assay [1] (MIC).
Take `CC[C@@H](CO)NCCN[C@@H](CC)CO` [ETHAMBUTOL]: the MIC in assay [2] was 2.5 µg/mL (≈ 12.2 µM); in assay [5] it was 2 µg/mL (≈ 9.79 µM); in assay [6] it was 2.5 µg/mL (≈ 12.2 µM); in assay [1] it was 2 µg/mL (≈ 9.79 µM).
As to `CO[C@H]1/C=C/O[C@@]2(C)Oc3c(C)c(O)c4c(c3C2=O)C2=NC3(CCN(CC(C)C)CC3)NC2=C(NC(=O)/C(C)=C\C=C\[C@H](C)[C@H](O)[C@@H](C)[C@@H](O)[C@@H](C)[C@H](OC(C)=O)[C@@H]1C)C4=O` [RIFABUTIN], the MIC amounted to 0.016 µg/mL (≈ 0.0189 µM) in assay [2]; 0.063 µg/mL (≈ 0.0744 µM) in assay [5]; 0.016 µg/mL (≈ 0.0189 µM) in assay [6]; 0.063 µg/mL (≈ 0.0744 µM) in assay [4]; 0.063 µg/mL (≈ 0.0744 µM) in assay [1].
Regarding `O=C(O)c1cn(C2CC2)c2cc(N3CCNCC3)c(F)cc2c1=O` [CIPROFLOXACIN], in assay [1], the lowest concentration to inhibit growth (MIC) was 0.125 µg/mL (≈ 0.377 µM).
`CC[C@H]1OC(=O)[C@H](C)[C@@H](O[C@H]2C[C@@](C)(OC)[C@@H](O)[C@H](C)O2)[C@H](C)[C@@H](O[C@@H]2O[C@H](C)C[C@H](N(C)C)[C@H]2O)[C@](C)(O)C[C@@H](C)C(=O)[C@H](C)[C@@H](O)[C@]1(C)O` [ERYTHROMYCIN]: the MIC was 128 µg/mL (≈ 174 µM) in assay [7], 4 µg/mL (≈ 5.45 µM) in assay [4] and 16 µg/mL (≈ 21.8 µM) in assay [1].
As to `NC(=O)c1cnccn1` [PYRAZINAMIDE], the MIC in assay [8] is more than 800 µg/mL.
Take `CC[C@H]1OC(=O)[C@H](C)[C@@H](O[C@H]2C[C@@](C)(OC)[C@@H](O)[C@H](C)O2)[C@H](C)[C@@H](O[C@@H]2O[C@H](C)C[C@H](N(C)C)[C@H]2O)[C@](C)(OC)C[C@@H](C)C(=O)[C@H](C)[C@@H](O)[C@]1(C)O` [CLARITHROMYCIN]: the MIC in assay [2] stood at 0.07 µg/mL (≈ 0.0936 µM); in assay [7], 2 µg/mL (≈ 2.67 µM); in assay [6], 0.15 µg/mL (≈ 0.201 µM); in assay [4] it was 0.3 µg/mL (≈ 0.401 µM); in assay [1] it was 0.25 µg/mL (≈ 0.334 µM).
Regarding `CC[C@H]1OC(=O)[C@H](C)[C@@H](O[C@H]2C[C@@](C)(OC)[C@@H](O)[C@H](C)O2)[C@H](C)[C@@H](O[C@@H]2O[C@H](C)C[C@H](N(C)C)[C@H]2O)[C@](C)(O)C[C@@H](C)CN(C)[C@H](C)[C@@H](O)[C@]1(C)O` [AZITHROMYCIN], the minimal inhibitory concentration (MIC) in assay [4] came to 1 µg/mL (≈ 1.34 µM); in assay [1] it was 16 µg/mL (≈ 21.4 µM).
Compound `NC[C@H]1O[C@H](O[C@H]2[C@H](O)[C@@H](O[C@H]3O[C@H](CO)[C@@H](O)[C@H](N)[C@H]3O)[C@H](N)C[C@@H]2N)[C@H](O)[C@@H](O)[C@@H]1O` [KANAMYCIN] registered an MIC in assay [1] of 1 µg/mL (≈ 2.06 µM).
Regarding `CO[C@H]1/C=C/O[C@@]2(C)Oc3c(C)c(O)c4c(O)c(c(/C=N/N5CCN(C)CC5)c(O)c4c3C2=O)NC(=O)/C(C)=C\C=C\[C@H](C)[C@H](O)[C@@H](C)[C@@H](O)[C@@H](C)[C@H](OC(C)=O)[C@@H]1C` [RIFAMPIN], the minimum inhibitory concentration (MIC) in assay [2] was 0.016 µg/mL (≈ 0.0194 µM); in assay [5], 0.063 µg/mL (≈ 0.0766 µM); in assay [6] it was 0.031 µg/mL (≈ 0.0377 µM); in assay [4] it was 0.063 µg/mL (≈ 0.0766 µM); in assay [1], less than 0.031 µg/mL.
Take `NNC(=O)c1ccncc1` [ISONIAZID]: the MIC in assay [2] stood at 0.4 µg/mL (≈ 2.92 µM); in assay [5], 0.06 µg/mL (≈ 0.438 µM); in assay [4] it was 0.1 µg/mL (≈ 0.729 µM); in assay [1] it was 0.125 µg/mL (≈ 0.911 µM).
